# In patent US12458612B2, “Combination therapy comprising compounds of formula (I) and GLP-1 receptor agonists” (GENFIT, priority 2019, dated 2025):
# Legend:
# NASH-B6 mice = assay: Body weight, adiposity and food intake, 8 weeks in NASH-B6 mice (Example 6); assay type: in vivo; settings: liraglutide 0.02 mg/kg/day, 8 weeks (FIG. 13B)
# Experimental: Male C57BL/6NTac mice (Taconic, USA) were fed with the GAN diet (D09100310 Research Diet) 31 weeks prior to study start to induce NASH pathology (NASH-B6 model). Prior to treatment, blood was collected by retro-orbital sinus puncture after a 6 h-fasting period to measure plasma ALT, AST, TIMP Metallopeptidase Inhibitor 1 (TIMP1, a surrogate marker of liver fibrosis). Blood glucose was measured directly from the tail vein using a WellionVet glucometer (CALEA) after a 6 h-fasting period. Ketone bodies (KB) was also measured directly from the tail vein using a FreeStyle Optium Neo ketometer. Mice were randomized into treatment groups (n=10/group) based on body weight, glycemia, ketonemia and plasma ALT, AST and TIMP1. They received either vehicles, elafibranor (3 mg/kg/day, per os), liraglutide (0.01 mg/kg, BID, SC) or both elafibranor and liraglutide for 8 weeks. To avoid GLP-1 receptor agonist-induced hypophagia, an up-titration protocol was applied for liraglutide during the first 3 weeks of treatment (starting with 0.001 mg/kg BID). Vehicle-dosed chow-fed mice served as additional controls (R03-10 U8211G10R, SAFE).
# Body weight and food intake were monitored each day during the treatment period. On the last day of treatment, serum samples were obtained after retro-orbital sinus puncture blood sampling and mice were sacrificed. […]
# DIO-NASH mice [1] = assay: Hepatic triglyceride content, 40 days in DIO-NASH mice (Example 1); assay type: in vivo; settings: ELA 10 mg/kg/day, SEMA 10 nmol/kg/day, 40 days (FIG. 3)
# Experimental: (§1) The effects of elafibranor alone, semaglutide alone and the combination of both were assessed in DIO-NASH mice (C57BL6JRj mice fed with a Amylin Liver NASH Model diet (AMLN) (Research Diet, 40% fat (18% trans-fat), 40% carbohydrate (20% fructose), and 2% cholesterol) (36 weeks prior to study start). 41 weeks old male DIO-NASH mice were fed a vehicule (n=12), or vehicule supplemented with elafibranor (10 mg/kg/day), or semaglutide alone (10 nmol/kg) (titration to final dose over 5 days using increments of 0.08 mg/mL) or in combination (n=12 per group).
# On the last day of treatment, plasma samples were obtained after cardiac puncture blood sampling and mice were sacrificed. The liver was rapidly excised for biochemical and histological analyses.
# Approximately 100 mg of frozen liver tissue were homogenized with a tissue homogenizer (Precellys®24, Bertin Technologies, France) in 150 mM NaCl buffer, containing 15.4 mM NaN3. Lipid fractions in homogenates were extracted with chloroform—methanol (2:1, v/v) followed by measurement of the triglycerides (Biolabo cat #80019).
# DIO-NASH mice [2] = assay: Glycemia (plasma glucose), 40 days in DIO-NASH mice (Example 1); assay type: in vivo; settings: ELA 10 mg/kg/day, SEMA 10 nmol/kg/day, 40 days (FIG. 4)
# Experimental: as §1
# (§2) Sampling from tail vein were done during the protocol for, blood glucose, plasma insulin, alanine transaminase, aspartate transaminase, triglycerides, total cholesterol dosages.
# The plasma glucose level was measured using the Randox kit for Daytona automate (Randox, cat #GL 3815) according to the manufacturer's recommendations. This method was based on a colorimetric assay without any deproteinization of the sample. Briefly, glucose oxidase digestion of the sample led to hydrogen peroxide synthesis. In the presence of phenol and 4-aminophenazone, the hydrogen peroxide was catalyzed by a peroxidase and formed a dye: the quinoneimin. The coloration intensity was directly proportional to the glucose concentration and was measured at 505 nm. Results were expressed in mg/dL.
# DIO-NASH mice [3] = assay: Insulinemia (plasma insulin), 40 days in DIO-NASH mice (Example 1); assay type: in vivo; settings: ELA 10 mg/kg/day, SEMA 10 nmol/kg/day, 40 days (FIG. 5)
# Experimental: as §1, §2
# The plasmatic insulin was measured using a solid phase two-site enzyme immunoassay from Crystal Chem Inc. (cat #90010). Briefly, 95 μL of guinea-pig anti-insulin serum and 5 μL of diluted sample (or standard) were dispensed per well into a 96-well plate. […] The reaction was then stopped by adding 100 μL of stop solution and absorbance was immediately measured at 450 nm (subtracting wave length: 630 nm). The intensity of the coloration was proportional to the amount of insulin initially present in the sample and was calculated using a standard serum. […]
# DIO-NASH mice [4] = assay: Histological assessment of NASH, 12 weeks in DIO-NASH mice (Example 3); assay type: in vivo; settings: monotherapy low dose ELA 10 mg/kg/day or SEMA 0.3 nmol/kg/day
# Experimental: Male C57BL/6JRj mice were fed with the AMLN diet 35 weeks prior to study start (DIO-NASH model). Mice with biopsy confirmed steatosis (score ≥2) and fibrosis (score ≥1) were randomized into treatment groups (n=12-14 per group). Mice received either vehicles, elafibranor (10 mg/kg/day, per os), semaglutide (0.3 nmol/kg/day, SC) or both elafibranor and semaglutide for 12 weeks. Suboptimal drug doses were used in this study. To avoid SEMA-induced hypophagia, an up-titration protocol was applied during the first 3 weeks of treatment.
# On the last day of treatment, plasma samples were obtained after cardiac puncture blood sampling and mice were sacrificed. The liver was rapidly excised for histology and biochemical and transcriptomic analyses.
# Liver sections were prepared and stained with hematoxylin eosin safranin (HES) as described in Example 1. The histological features of NASH (steatosis, ballooning, lobular inflammation and fibrosis) were assessed using the NASH Clinical Research Network Scoring System by operators blinded to the experimental groups (Kleiner 2005, Brunt 1999). Steatosis score, activity index (hepatocyte ballooning+lobular inflammation) and NAFLD activity score (NAS) were calculated. Number of inflammatory foci was counted per field using a 200× magnification.
# [5] = test system: TNFα secretion in LPS-activated macrophages (THP-1); assay: TNFα secretion in LPS-activated THP-1 macrophages, combination matrix, HTRF (Example 4); assay type: cell-based, Human; settings: GLP-1 receptor agonist alone; LPS-activated THP1 macrophages (FIGS. 11A-B)
# Experimental: Human_THP-1 monocytes were seeded at a density of 25,000 cells per well in 384-well plate in RPMI1640 (Gibco, 21875) supplemented with 10% FBS, 1% Penicillin-streptomycin (Gibco, 15140122) and 25 mM Hepes (Gibco, 15630080) and differentiated into macrophages using PMA (Phorbol 12-myristate 13-acetate, Sigma, P8139) at the final concentration of 100 ng/ml for 24 hours.
# A 2 component combination matrix was prepared. ELA and GLP-1 receptor agonists stocks were serially diluted in DMSO in 3-points series in a row (ELA) and a 8-points series in a column of a 96-well plate for GLP1RA. Subsequently, the 3×8 combination matrix was generated by 1:1 mixing of all single agent concentrations.
# After 24 hrs with PMA, medium was removed, and replaced by serum free RPMI. […]
# Synergism between compounds was determined using the Excess Over Bliss (EOB) method.
# The values obtained in the TNFα HTRF assay were first transformed into percentage inhibitions over LPS control. Then, using these percentage inhibitions, EOB were calculated. Expected Bliss additivism score (E) was firstly determined by the equation: E=(A+B)−(A×B) where A and B are the percentage inhibition of elafibranor (A) and GLP-1 analogue (B) at a given dose.
# The total Bliss score was calculated by addition of all EOB.
# DIO-NASH mice [6] = assay: Plasma ALT and CRP in DIO-NASH mice, low/high dose semaglutide (Example 7); assay type: in vivo
# Experimental: (§3) The effects of elafibranor alone, semaglutide (low and high doses) alone and their combination were assessed in DIO-NASH mice (C57BL6JRj mice fed with a Amylin Liver NASH Model diet (AMLN) (Research Diet, 40% fat (18% trans-fat), 40% carbohydrate (20% fructose), and 2% cholesterol) (35 weeks prior to study start). Mice with biopsy confirmed steatosis (score≥2) and fibrosis (score≥1) were randomized into treatment groups (n=12 per group). Mice received either vehicles, elafibranor (10 mg/kg/day, per os), low-dose semaglutide (0.3 nmol/kg/day, SC), high-dose semaglutide (10 nmol/kg/day, SC) or elafibranor (10 mg/kg/day) and semaglutide (0.3 nmol/kg/day) in combination.
# On the last treatment day, plasma samples were obtained after cardiac puncture blood sampling and mice were sacrificed. The liver was rapidly excised for transcriptomic analyses.
# Alanine aminotransferase (ALT) level was measured using Cobas™ C-501 autoanalyzer according to the manufacturer's instructions. C-reactive protein (CRP) concentration was measured by ELISA (Mouse C-Reactive Protein/CRP Immunoassay MCRP00, R&D Systems).
# DIO-NASH mice [7] = assay: Liver transcriptomic and gene ontology analysis in DIO-NASH mice (Example 7); assay type: in vivo
# Experimental: as §3, with “combination. […]” for “combination.”
# Total RNA was isolated from mice livers using Nucleospin® 96 RNA kit (Macherey Nagel) following manufacturer's instructions. […] The parameters used are an end minimum quality level of 25 and a minimum read length of 50. The unaligned reads were aligned to the Mus musculus mm10 reference genome using the software STAR version 2.5.3. […] Briefly, the count matrix produced by FeatureCounts was analyzed by the DESeqDataSetFromMatrix( ) function followed by the DEseq( ) function from the DESeq2 library. […]
# Each metascape analysis was exported as Excel file. The files were imported in R V using the read_excel function from the readxl library (version 1.3.1). […]
Compound,hypophagia (energy consumption) (NASH-B6 mice),liver fat / hepatic triglyceride content (DIO-NASH mice [1]),glycemia (DIO-NASH mice [2]),insulinemia (DIO-NASH mice [3]),mice showing NAS reduction beyond 1 stage (DIO-NASH mice [4]),"maximal effect, TNFα inhibition [5] [%]",decrease of plasma CRP relative to AMLN-fed vehicle group (DIO-NASH mice [6]; high-dose semaglutide 10 nmol/kg/day SC (FIG. 18)) [%],effect on plasma ALT (DIO-NASH mice [6]; low dose semaglutide 0.3 nmol/kg/day SC (FIG. 17)),effect on plasma CRP (DIO-NASH mice [6]; low-dose semaglutide 0.3 nmol/kg/day SC (FIG. 18)),"hepatic gene signature (gene ontology: inflammatory response, cytokine production, immune cell activation and migration) (DIO-NASH mice [7]; high-dose semaglutide 10 nmol/kg/day (FIG. 19))",hepatic gene signature (gene ontology: inflammatory pathways) (DIO-NASH mice [7]; low-dose SEMA 0.3 nmol/kg/day (FIG. 19))
CCCCCCCCCCCCCCCC(=O)N[C@@H](CCC(=O)NCCCC[C@H](NC(=O)[C@H](C)NC(=O)[C@H](C)NC(=O)[C@H](CCC(N)=O)NC(=O)CNC(=O)[C@H](CCC(=O)O)NC(=O)[C@H](CC(C)C)NC(=O)[C@H](Cc1ccc(O)cc1)NC(=O)[C@H](CO)NC(=O)[C@H](CO)NC(=O)[C@@H](NC(=O)[C@H](CC(=O)O)NC(=O)[C@H](CO)NC(=O)[C@@H](NC(=O)[C@H](Cc1ccccc1)NC(=O)[C@@H](NC(=O)CNC(=O)[C@H](CCC(=O)O)NC(=O)[C@H](C)NC(=O)[C@@H](N)Cc1cnc[nH]1)[C@@H](C)O)[C@@H](C)O)C(C)C)C(=O)N[C@@H](CCC(=O)O)C(=O)N[C@@H](Cc1ccccc1)C(=O)N[C@H](C(=O)N[C@@H](C)C(=O)N[C@@H](Cc1c[nH]c2ccccc12)C(=O)N[C@@H](CC(C)C)C(=O)N[C@H](C(=O)N[C@@H](CCCNC(=N)N)C(=O)NCC(=O)N[C@@H](CCCNC(=N)N)C(=O)NCC(=O)O)C(C)C)[C@@H](C)CC)C(=O)O [liraglutide],no hypophagia effect,–,–,–,–,–,–,–,–,–,–
semaglutide: commercially available GLP-1 receptor agonist,–,significant beneficial effect,no beneficial effect,significant beneficial effect,None of the mice,29,43,inefficient,inefficient,reverted the pathological signature,inefficient
